Consider 3 molecules from patent US6153740A, “cDNA encoding nucleoside transporter” (University of Alberta, priority 1997, dated 2000).

Like-named read-outs stand apart in the source and are kept apart here. Some results are limits rather than exact numbers.

One data set relates to cit transporter. The following applies: Terasaki et al, 1993; cited from earlier work.
Data set [1] concerns the target T1, CNT1 (Rattus norvegicus, UniProt Q62674).
T1 sequence (Q62674 1-648): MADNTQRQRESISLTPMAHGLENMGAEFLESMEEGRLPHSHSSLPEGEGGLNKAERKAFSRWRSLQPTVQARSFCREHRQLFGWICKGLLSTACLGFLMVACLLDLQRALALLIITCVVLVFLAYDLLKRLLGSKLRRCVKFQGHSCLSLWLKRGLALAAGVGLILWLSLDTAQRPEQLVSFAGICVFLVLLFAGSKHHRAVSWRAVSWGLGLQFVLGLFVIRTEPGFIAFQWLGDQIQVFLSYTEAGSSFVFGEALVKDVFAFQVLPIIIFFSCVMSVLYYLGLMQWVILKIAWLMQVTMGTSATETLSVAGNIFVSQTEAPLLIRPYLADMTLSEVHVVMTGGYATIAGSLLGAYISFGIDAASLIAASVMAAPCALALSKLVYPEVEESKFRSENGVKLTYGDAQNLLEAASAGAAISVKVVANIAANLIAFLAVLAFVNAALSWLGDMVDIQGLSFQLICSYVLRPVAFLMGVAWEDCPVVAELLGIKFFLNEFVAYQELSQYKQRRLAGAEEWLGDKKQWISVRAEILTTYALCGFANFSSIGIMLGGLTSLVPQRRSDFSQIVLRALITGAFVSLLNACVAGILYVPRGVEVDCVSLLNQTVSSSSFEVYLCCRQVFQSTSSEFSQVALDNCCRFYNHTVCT
The following applies: Yao et al. in press; cited from earlier work.

The test system of data set [2] is human erythrocyte es transporter. The following applies: cited from earlier work.
For data set [3], the target named is T1, CNT1. The data set can be described thus: inhibition of CNT1-mediated nucleoside (uridine, AZT, ddC) transport in Xenopus oocytes. Type of data set: cell-based. On the procedure: (§1) Oocytes were injected with water or RNA transcribed in vitro from the nucleoside transporter cDNA (pQQH1). […] For panels c and d, the permeant concentration was 10 μM and competing nonradioactive nucleosides were present at a concentration of 1 mM.
(§2) Remaining template was removed by digestion with RQ1 DNase. Oocytes were treated with collagenase to remove follicular layers (Huang et al, 1993) and injected with 10 ng of pQQH1 cRNA or water. […] At the end of the incubation, extracellular label was removed by six rapid ice-cold washes in the appropriate transport buffer. Individual oocytes were dissolved in 5% SDS for quantitation of oocyte-associated ^3 H by liquid scintillation counting (LS 6000 IC, Beckman).

In a further data set the test system is human erythrocytes. The following applies: cited from earlier work.
For data set [4] the following is noted: cited from earlier work.
For data set [5], the target named is T2, hCNT1b (Homo sapiens, UniProt O00337).
T2 sequence (O00337 2-649 V189I/N409S/D521N): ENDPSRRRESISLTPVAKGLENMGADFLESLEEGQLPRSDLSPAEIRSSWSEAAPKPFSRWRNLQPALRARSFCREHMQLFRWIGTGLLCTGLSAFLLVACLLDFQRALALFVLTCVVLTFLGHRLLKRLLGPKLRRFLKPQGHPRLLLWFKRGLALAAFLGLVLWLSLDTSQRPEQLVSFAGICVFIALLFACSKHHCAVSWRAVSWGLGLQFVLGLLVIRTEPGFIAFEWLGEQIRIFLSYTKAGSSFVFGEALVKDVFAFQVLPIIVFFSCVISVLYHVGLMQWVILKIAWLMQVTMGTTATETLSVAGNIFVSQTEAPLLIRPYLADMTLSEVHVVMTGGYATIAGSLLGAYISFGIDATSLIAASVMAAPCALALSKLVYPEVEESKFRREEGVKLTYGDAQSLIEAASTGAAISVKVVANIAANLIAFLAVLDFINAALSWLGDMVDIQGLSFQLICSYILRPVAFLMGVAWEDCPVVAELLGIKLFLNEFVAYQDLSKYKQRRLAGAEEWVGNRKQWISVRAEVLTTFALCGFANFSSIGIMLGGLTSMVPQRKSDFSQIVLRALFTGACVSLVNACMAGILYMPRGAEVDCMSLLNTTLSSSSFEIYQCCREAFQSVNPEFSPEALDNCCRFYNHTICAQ
The data set can be described thus: inhibition of hCNT1b-mediated influx of [3H]uridine in Xenopus oocytes. It counts as cell-based. The following applies: uridine 10 μM. The text has this:
H2 O, water-injected oocytes.

In another data set the test system is rat jejunum. Description: uptake of [3H]AZT by rat jejunum in vivo.
The test system of another data set is kidney. To be noted: humans, mice (adenosine also rat); cited from earlier work.
Data set [6] concerns the target T3, hCNT1a (Homo sapiens, UniProt O00337).
T3 sequence (O00337 with tags, fused parts or gaps E34G/INS140V): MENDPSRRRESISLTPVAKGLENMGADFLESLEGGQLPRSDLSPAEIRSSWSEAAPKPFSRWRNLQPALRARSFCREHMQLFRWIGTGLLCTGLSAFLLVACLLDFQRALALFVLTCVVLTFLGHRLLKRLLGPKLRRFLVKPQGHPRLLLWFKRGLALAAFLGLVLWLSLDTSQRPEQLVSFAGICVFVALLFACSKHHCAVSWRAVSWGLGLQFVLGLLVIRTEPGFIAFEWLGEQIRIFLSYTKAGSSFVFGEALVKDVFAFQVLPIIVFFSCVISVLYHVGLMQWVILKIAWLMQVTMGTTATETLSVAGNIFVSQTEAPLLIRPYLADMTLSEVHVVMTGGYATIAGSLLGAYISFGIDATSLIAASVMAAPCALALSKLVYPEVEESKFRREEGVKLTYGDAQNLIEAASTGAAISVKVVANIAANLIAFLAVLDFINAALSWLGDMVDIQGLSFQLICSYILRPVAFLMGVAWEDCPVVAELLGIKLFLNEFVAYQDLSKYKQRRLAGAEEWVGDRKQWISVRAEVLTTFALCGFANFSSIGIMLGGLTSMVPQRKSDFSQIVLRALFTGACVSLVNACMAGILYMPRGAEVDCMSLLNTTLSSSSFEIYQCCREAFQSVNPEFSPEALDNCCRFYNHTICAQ
The data set can be described thus: inhibition of hCNT1a-mediated influx of [3H]uridine in Xenopus oocytes. The following applies: uridine 10 μM.

Data set [7] has as its target T1, CNT1. The data set can be described thus: uptake/influx of radiolabelled nucleosides in Xenopus oocytes injected with pQQH1 (rat CNT1) cRNA. It counts as cell-based. The following applies: for Vmax: rat CNT1, permeant = labelled substance. On the procedure:
as §1
Oocytes injected with water or in vitro transcribed RNA from pQQH1 were incubated with radiolabeled permanent (10 μM) for 30 min (open columns) or 1 h (hatched columns) at 20° C. Each value represents the mean ±S. E. of 8-10 ooctyes.
as §2

The target in data set [8] is T3, hCNT1a. The data set can be described thus: influx of radiolabelled nucleosides in Xenopus oocytes injected with hCNT1a RNA transcript.
Data set [9] addresses T2, hCNT1b. The data set can be described thus: influx of radiolabelled nucleosides in Xenopus oocytes injected with hCNT1b RNA transcript. Type of data set: cell-based. The following applies: hCNT1b.
Substrate in data set [10]: O=c1ccn([C@@H]2O[C@H](CO)[C@@H](O)[C@H]2O)c(=O)[nH]1
The data set can be described thus: cells, lysate or membranes. The following applies: other: rat CNT1, 20° C., pH 7.5.

Substrate in data set [11]: Nc1ccn([C@H]2CC[C@@H](CO)O2)c(=O)n1
Description: uptake/influx of radiolabelled nucleosides in Xenopus oocytes injected with pQQH1 (rat CNT1) cRNA. The following applies: other: rate versus concentration studies, pH 7.5, 20.0 °C. Type of data set: cell-based.

The mark [12] stands for this setting: 10 μM, same experiment as adenosine (FIG. 14A).

By IC50 is commonly meant the concentration that gives 50% inhibition. Lower therefore signals greater potency in that assay. One may read the Km as the substrate concentration at which the rate is half of its maximum. Turning to `Cc1cn([C@H]2C[C@H](N=[N+]=[N-])[C@@H](CO)O2)c(=O)[nH]c1=O` [AZT, 3'-azido-3'-deoxythymidine], the “cit-mediated uridine transport, inhibition” value with cit transporter is “inhibited”. The “transport by recombinant rCNT1 in oocytes” value on CNT1 [1] is given as “transports AZT”. Moreover, the “transport by equilibrative nucleoside transporters” value in data set [2] is “not transported”. Further, on CNT1 [3], the IC50 is below 1000 µM. Also, the “rate of entry into human erythrocytes relative to those of thymidine and cytidine” value in the data set with human erythrocytes is below 2%. Also, the “excretion in the urine” value in data set [4] (Good et al. 1990, Griffiths et al. 1992) is reported as “excreted in the urine either unchanged or as the glucuronide conjugate”. The “absorption by the gastrointestinal systems of humans and rats” value in data set [4] (oral) was “absorbed efficiently”. In addition, the “inhibition of hCNT1b-mediated influx of uridine” value against hCNT1b [5] (analog 5 mM (FIG. 12B)) is listed as “inhibited”. Further, in the data set on rat jejunum, the “uptake of [3H]AZT by rat jejunum in vivo” value is given as “Na^+ -dependent”. The net renal handling result with kidney is recorded as “net renal secretion”. On hCNT1a [6] (analog 5 mM (FIG. 12A)), the “inhibition of hCNT1a-mediated influx of uridine” value is given as “inhibited”. Besides, the CNT1-mediated uptake/transport result on CNT1 [7] (10 μM permeant) is on record as “large increases”. In addition, the “mediated flux, rCNT1” value at CNT1 [7] (10 μM permeant (FIG. 14)) turned out to be 4.10±0.34 pmol/oocyte.10 min^-1. Besides, the “Na+ dependence of initial rate of expressed uptake” value on CNT1 [7] (10 μM, 10-min flux) was determined as 77%. Moreover, the Vmax on CNT1 [7] amounted to 28 pmol/oocyte.min^-1. The Km at CNT1 [7] (rate versus concentration studies, rat CNT1, read-out: apparent Km) came to 490 µM. Also, at hCNT1a [8], the “transport by hCNT1” value is “transport”. For the same molecule, the “mediated flux, hCNT1a” value at hCNT1a [8] (10 μM permeant (FIG. 14)) worked out at 4.79±0.41 pmol/oocyte.10 min^-1.
The inhibition is the drop in the measured response relative to a control, in per cent. Consider `O=c1ccn([C@@H]2O[C@H](CO)[C@@H](O)[C@H]2O)c(=O)[nH]1` [uridine], for which the inhibition at 1000 µM on CNT1 [3] (read-out: inhibition of expressed AZT uptake) and on CNT1 [3] (read-out: inhibition of expressed ddC uptake) was above 95% in each case. For the same molecule, the “Vmax, influx of uridine” value on hCNT1b [9] is recorded as 22±2 pmol/oocyte.min^-1; at hCNT1a [8] (hCNT1a), 26±1 pmol/oocyte.min^-1. For the same molecule, on hCNT1b [9] (read-out: apparent Km, influx of uridine), the Michaelis-Menten constant (Km) came out at 37 ± 10 µM. Besides, the “inhibition of uridine fluxes, hCNT1b” value at hCNT1b [5] (competitor 1 mM (FIG. 12B)) is listed as “inhibited”. Further, in the data set on rat jejunum, the “inhibition of [3H]AZT uptake by rat jejunum in vivo” value is listed as “inhibited by uridine”. The “inhibition of uridine fluxes, hCNT1a” value at hCNT1a [6] (competitor 1 mM (FIG. 12A), guanosine also in FIG. 13) is on record as “inhibited”. Moreover, the “intracellular concentration higher than that in the extracellular medium” value at CNT1 [7] (10 μM uridine, 30 min) is “approximately 6 -fold”. Also, on CNT1 [7] (10 μM, 20° C., 30 min, pQQH1 cRNA-injected), the “cellular content of uridine after 30 min” value is given as 64 pmol/oocyte. The “uridine flux, rCNT1” value at CNT1 [7] (setting [12]) is recorded as 5.60±0.38 pmol/oocyte.min^-1. For the same molecule, the “effect of substitution of Cl- by gluconate on flux” value on CNT1 [7] (100 mM NaCl or sodium gluconate, 10 mM HEPES, pH 7.6) was “unaffected”. Further, the “Vmax (uridine transport)” value on CNT1 [7] (rat CNT1) is 21 pmol/oocyte-min^-1. Also, the Vmax on CNT1 [7] is reported as 21 pmol/oocyte.min^-1. Further, the “uridine influx in Na+-medium” value on hCNT1a [8] (10 μM, 100 mM NaCl (FIG. 9)) amounted to 4.88±0.70 pmol/oocyte.min^-1. The “uridine influx in choline-medium” value on hCNT1a [8] (10 μM, 100 mM choline chloride (FIG. 9)) amounted to 0.18±0.01 pmol/oocyte.min^-1. In addition, the “uridine flux, hCNT1a” value on hCNT1a [8] (setting [12]) was determined as 3.68±0.46 pmol/oocyte.min^-1. Moreover, the “Na+-independent uridine influx” value on hCNT1a [8] (50 μM uridine (FIG. 11)) came out at 0.81±0.14 pmol/oocyte.min^-1.

B1: CNT1 (Rattus norvegicus) (protein)
chain: T1 sequence (Q62674 1-648)
notes: identified as pQQH1, has an open reading frame encoding a 648-amino acid protein; expressed in transfected cells; host or cells: Xenopus oocytes injected with pQQH1 cRNA
Turning to B1, the Km in [10] amounted to 37 µM; in data set [11], 510 µM.
